From paper PMC8899516, “Structure-Activity Relationship Studies of 4-((4-(2-fluorophenyl)piperazin-1-yl)methyl)-6-imino-N-(naphthalen-2-yl)-1,3,5-triazin-2-amine (FPMINT) Analogues as Inhibitors of Human Equilibrative Nucleoside Transporters” (Frontiers in Pharmacology, 2022)

Assays:
ENT2 = assay: Western blotting of ENT2 protein expression; type: cell-based, human; settings: 50 µM, 24 h or 48 h
Procedure: PK15NTD/ENT1 and PK15NTD/ENT2 cells were grown to confluence in 10-cm culture dishes and treated with 50 µM of compound 3c or an equivalent volume of a vehicle (0.5% DMSO) for 24 h or 48 h. The cells were washed thrice with ice-cold PBS. Total protein was extracted by cell lysis in a lysis buffer (5 mM sodium monophosphate, pH 8) with a protease inhibitor cocktail (Sigma, St Louis, MO, United States; 1:1,000 [v/v]). The protein content was measured by bicinchoninic acid assay. Protein samples were separated by 12.5% sodium dodecyl sulfate–polyacrylamide gel electrophoresis (SDS-PAGE) and blotted onto polyvinylidene difluoride (PVDF) membranes. […] The membranes were then again washed, and the bound secondary antibodies were detected using an enhanced chemiluminescence kit (Bio-Rad, Hercules, CA, United States). […] To semi-quantify the ENT1 and ENT2 protein levels, the same membranes were washed three times with a stripping buffer for 10 min at room temperature, and the protein expression level of β-actin was measured using monoclonal mouse anti-β-actin primary antibodies (1:3,000 [v/v] dilution in a blocking solution). […]
FIGURE 5 Effects of compound 3c on cytotoxicity and protein expressions of ENT1 and ENT2. […] Total ENT1 and ENT2 from whole-cell lysates were also detected for a comparison. β-actin served as an internal reference. […]

PK15NTD/ENT2 cells = assay: Cell viability, MTT assay; type: cell-based, porcine; settings: 50 µM, 24 or 48 h
Procedure: (§1) PK15NTD/ENT1 and PK15NTD/ENT2 cells were seeded onto 96-well plates until they reached 80–90% confluent. The cells were then treated with different concentrations of compound 3c or an equivalent volume of a vehicle (0.5% dimethyl sulfoxide (DMSO), as a control) in a serum-free medium for another 24 or 48 h. For measuring cell membrane integrity, the lactate dehydrogenase (LDH) released into the culture medium was measured with a detection kit (Abcam, Cambridge, UK) according to the manufacturer’s instructions. The absorbance at 490 nm was measured with a microplate absorbance reader. For measuring cell viability, 0.5 mg/ml methylthiazolyldiphenyl-tetrazolium bromide (MTT) was added to each well. […] The absorbance was measured at 560 nm, with the absorbance at 655 nm serving as the background.
(§2) FIGURE 5 Effects of compound 3c on cytotoxicity and protein expressions of ENT1 and ENT2. Cytotoxicity of compound 3c was measured after 24 h or 48 h treatment of PK15NTD/ENT1 and PK15NTD/ENT2 cells with various concentrations of compound 3c (0.5, 5 and 50 μM) or a vehicle (0.5% DMSO, as a control) (A) The cell viability and (B) cell membrane integrity were determined by the MTT assay and LDH release, respectively (C) PK15NTD/ENT1 and (D) PK15NTD/ENT2 cells were incubated with 50 μM of compound 3c or a vehicle (0.5% DMSO, as a control) for 24 or 48 h. […]

PK15NTD/ENT1 cells = assay: Cell viability, MTT assay; type: cell-based, porcine; settings: 50 µM, 24 or 48 h
Procedure: as §1, §2

Structure (SMILES): Cc1cccc(Nc2nc(N)nc(CN3CCN(c4ccc(F)cc4)CC3)n2)c1 [Compound 3c]
- protein expression level of ENT2 (ENT2): unaltered
- cell viability (PK15NTD/ENT2 cells): No significant changes
- cell viability (PK15NTD/ENT1 cells): No significant changes
